Experimental data as given in PMC4750701, “Role of Mitochondrial RNA Polymerase in the Toxicity of Nucleotide Inhibitors of Hepatitis C Virus” (Antimicrobial Agents and Chemotherapy, 2016).

Experiments:
RNA PolIII = molecular target: T1, RNA PolIII (Homo sapiens, UniProt O14802+Q9NW08); test: RNA PolIII inhibition assay; type: biochemical; details: competing NTP 100 μM CTP and GTP, 500 μM ATP; read-out: Mean IC50 ± SD for RNA PolIII
T1 construct: complexes were isolated from rat NSN1 cells and HeLa cells, respectively; made in house; host or cells: HeLa cells expressing a FLAG-tagged Pol III subunit
Description: (§1) Human DNA polymerase alpha, isolated from HeLa cell extracts, was from CHIMERx (Madison, WI). Recombinant human DNA polymerase beta, expressed in E. coli, was a gift from Zucai Suo at The Ohio State University. Recombinant human DNA polymerase gamma (including both the large subunit and the small subunit) was cloned, expressed, and purified from insect cells by Gilead Sciences (Foster City, CA) ([13]). RNA PolII was purchased as part of the HeLaScribe nuclear extract in vitro transcription system kit from Promega (Madison, WI). The recombinant human PolRMT and the transcription factors mitochondrial transcription factor A (mtTFA) and B2 (mtTFB2) were purchased from Enzymax (Lexington, KY). FLAG epitope-tagged RNA PolI and PolIII complexes were isolated from rat NSN1 cells and HeLa cells, respectively ([17], [18]). The inhibition of DNA polymerases alpha, beta, and gamma, PolRMT, and PolII and the rate of single-nucleotide incorporation by PolRMT have been described previously in detail ([12], [13], [19]). Inhibition of RNA PolI and PolIII was studied using published methods ([20], [21]). All concentrations were final unless noted otherwise. For the RNA PolI inhibition assay, a reaction mixture containing 50 mM HEPES (pH 7.9), 20% glycerol, 100 mM KCl, 1 mM dithiothreitol (DTT), 50 μg/ml calf thymus DNA, 4 mM MgCl2, 5 or 80 μM UTP (0.25 μl of [5,6-^3H]UTP, >25 Ci/mmol; PerkinElmer), 1 mM noncompeting NTP, competing NTP (5 μM for GTP, CTP, and UTP and 25 μM for ATP), and various concentrations (0 to 500 μM) of NTP analogs was preincubated at 30°C for 5 min. […] After incubation at 30°C for 20 min to 1 h, the reactions were terminated by pipetting the mixtures onto DEAE-cellulose discs (DE81; Whatman), and the products analyzed as described previously ([20], [21]).
The RNA PolIII inhibition assay was conducted in a similar manner, except that the concentrations of the competing NTP were modified to 100 μM for CTP and GTP and 500 μM for ATP to compensate for the low assay signal at lower NTP concentrations.

RNA PolII = molecular target: T2, RNA PolII (Homo sapiens, UniProt P24928+P30876); test: Inhibition of RNA PolII (HeLaScribe nuclear extract transcription); type: biochemical; details: nucleotide analogs (Table 6); read-out: Mean IC50 ± SD for RNA PolII
T2 construct: purchased as part of the HeLaScribe nuclear extract in vitro transcription system kit; purchased Promega (Madison, WI); host or cells: HeLa nuclear extract (endogenous enzyme)
Description: (§2) Activated fish sperm DNA was purchased from USB/Affymetrix (Santa Clara, CA) and used as a template for the DNA polymerases alpha, beta, and gamma. The DNA template used in the RNA Pol II assay was a 1,188-bp restriction fragment containing the cytomegalovirus (CMV) immediate early promoter (Promega, Madison, WI). The RNA and DNA oligonucleotides used in the mitochondrial RNA polymerase assay (see Table S1 in the supplemental material) were synthesized and PAGE purified by Thermo Scientific/Dharmacon (Lafayette, CO). RNA primer R12 was 5′-^32P-phosphorylated with [γ-^32P]ATP (3,000 Ci/mmol) and T4 kinase (New England BioLabs, Ipswich, MA).
as §1

RNA PolI = molecular target: T3, RNA PolI (Rattus norvegicus, UniProt O54889); test: RNA PolI inhibition assay; type: biochemical; details: NTP analogs 0 to 500 μM; read-out: Mean IC50 ± SD for RNA PolI
T3 construct: complexes were isolated from rat NSN1 cells and HeLa cells, respectively; made in house; host or cells: rat NSN1 cells expressing a FLAG-tagged Pol I subunit
Description: as §1

[1] = molecular target: T4, Recombinant human DNA polymerase beta (Homo sapiens, UniProt P06746); test: Inhibition of human DNA polymerase beta; type: biochemical; details: triphosphate form of the compound tested; read-out: Mean IC50 ± SD for DNA Pol β
T4 construct: host or cells: E. coli
Description: as §2, §1

[2] = molecular target: T5, Recombinant human DNA polymerase gamma (Homo sapiens, UniProt P54098); test: Inhibition of human DNA polymerase gamma; type: biochemical; details: triphosphate form of the compound tested; read-out: Mean IC50 ± SD for DNA Pol γ
T5 construct: made in house; host or cells: insect cells
T5 sequence (P54098 1-1239): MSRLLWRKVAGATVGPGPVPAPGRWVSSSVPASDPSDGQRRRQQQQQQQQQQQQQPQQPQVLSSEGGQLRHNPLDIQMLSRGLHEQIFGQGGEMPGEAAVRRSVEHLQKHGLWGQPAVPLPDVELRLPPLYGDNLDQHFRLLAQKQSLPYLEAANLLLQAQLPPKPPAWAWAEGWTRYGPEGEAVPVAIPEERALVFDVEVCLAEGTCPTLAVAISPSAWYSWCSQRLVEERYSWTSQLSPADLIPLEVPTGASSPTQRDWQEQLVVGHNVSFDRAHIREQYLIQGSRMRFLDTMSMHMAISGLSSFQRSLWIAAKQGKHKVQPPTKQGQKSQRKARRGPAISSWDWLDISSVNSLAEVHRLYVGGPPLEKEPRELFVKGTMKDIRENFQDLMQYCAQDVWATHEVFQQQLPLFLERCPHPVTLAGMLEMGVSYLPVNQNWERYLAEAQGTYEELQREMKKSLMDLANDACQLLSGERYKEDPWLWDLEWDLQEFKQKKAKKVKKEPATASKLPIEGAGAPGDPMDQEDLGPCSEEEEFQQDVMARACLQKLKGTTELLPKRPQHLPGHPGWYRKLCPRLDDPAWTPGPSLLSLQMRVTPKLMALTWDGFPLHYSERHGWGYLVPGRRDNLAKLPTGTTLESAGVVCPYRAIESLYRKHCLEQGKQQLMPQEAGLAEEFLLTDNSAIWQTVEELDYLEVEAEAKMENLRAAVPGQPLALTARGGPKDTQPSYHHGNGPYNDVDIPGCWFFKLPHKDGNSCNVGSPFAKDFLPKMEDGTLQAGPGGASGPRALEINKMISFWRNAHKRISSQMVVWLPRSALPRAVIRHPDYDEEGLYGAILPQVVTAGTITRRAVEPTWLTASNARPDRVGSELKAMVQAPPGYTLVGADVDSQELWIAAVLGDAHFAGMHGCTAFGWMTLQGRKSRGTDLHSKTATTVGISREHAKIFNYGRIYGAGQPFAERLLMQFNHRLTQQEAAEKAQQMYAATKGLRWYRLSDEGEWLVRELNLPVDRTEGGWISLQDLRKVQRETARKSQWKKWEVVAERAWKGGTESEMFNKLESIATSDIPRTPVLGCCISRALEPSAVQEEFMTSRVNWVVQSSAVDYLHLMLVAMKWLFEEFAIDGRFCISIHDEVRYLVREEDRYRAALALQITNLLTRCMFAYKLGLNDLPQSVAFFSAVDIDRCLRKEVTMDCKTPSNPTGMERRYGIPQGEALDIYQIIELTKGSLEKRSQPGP
T5 sequence (Q9UHN1 26-485 partner limits assumed): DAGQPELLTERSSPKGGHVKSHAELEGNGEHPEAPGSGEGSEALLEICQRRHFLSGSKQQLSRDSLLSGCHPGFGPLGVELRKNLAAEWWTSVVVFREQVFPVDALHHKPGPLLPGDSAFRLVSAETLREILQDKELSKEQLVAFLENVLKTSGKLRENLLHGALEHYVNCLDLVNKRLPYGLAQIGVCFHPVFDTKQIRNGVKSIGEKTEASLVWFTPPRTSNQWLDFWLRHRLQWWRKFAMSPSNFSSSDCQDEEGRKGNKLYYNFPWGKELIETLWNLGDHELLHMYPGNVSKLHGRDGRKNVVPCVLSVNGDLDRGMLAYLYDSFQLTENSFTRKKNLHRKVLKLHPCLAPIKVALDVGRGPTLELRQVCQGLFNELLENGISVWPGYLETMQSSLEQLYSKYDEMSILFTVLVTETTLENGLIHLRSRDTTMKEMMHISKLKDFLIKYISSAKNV
Description: as §2, §1

[3] = Cytotoxicity in Huh7 cells, 5-day treatment (CellTiter Glo); details: human, Huh-7 cells
Experimental: (§4) All cells were cultured at 37°C in a 5% CO2 incubator with 90% humidity unless noted otherwise. […] All cells were treated with the various compounds for 5 days, except for human erythroid and myeloid progenitors, which were treated for 14 days. After the incubation period, cell viability was measured by the addition of CellTiter Glo viability reagents (Promega, Madison, WI). The luminescence signal was quantified on an Envision luminescence plate reader (PerkinElmer, Waltham, MA) after incubation of the reagents and cells for 10 min at room temperature. […] CC50 values were calculated as the average of the results of three or four independent experiments.
Cell Culture and Cytotoxicity Studies
(§5) The Huh-7 cells were maintained in growth medium containing Dulbecco's Modified Eagle
(§6) Medium (DMEM, Cellgro) supplemented with 1% Nonessential Amino Acids (NEAA, Cellgro,
(§7) Manassas, VA), 10% fetal bovine serum (FBS, HyClone, Logan, UT) and 1% Penicillin-
(§8) streptomycin-glutamate (PSG, Invitrogen, Carlsbad, CA). The cells were passaged twice weekly
(§9) and maintained at 90% confluence densities.
(§10) The HepG2 cells were maintained in Eagle’s Minimum Essential Medium (EMEM) from ATCC
(§11) (Manassas, VA) supplemented with 10% FBS, 100 units/mL penicillin and 100 µg/mL
(§12) streptomycin (P/S) (Gibco). The cells were passaged twice weekly and maintained at 90%
(§13) The PC-3 cells were maintained in Kaighn’s F12 medium (Gibco, Carlsbad, CA) supplemented
(§14) with 10% FBS (HyClone, Logan, UT), 100 units/mL penicillin and 100 µg/mL streptomycin
(§15) (P/S) (Gibco). The cells were passaged twice weekly and maintained at 90% confluence. Cells
(§16) between passages 4 and 15 were used in the assays.
(§17) The fibroblast cell line MRC-5 cell line derived from normal lung tissue, was purchased from
(§18) ATCC (Manassas, VA) and cultured in Minimum Essential Medium (MEM) (Cellgro, Manassas,
(§19) VA) supplemented with 10% FBS (HyClone, Logan, UT) and 1% PSG (Invitrogen). The cells
(§20) were passaged twice weekly and maintained at 90% confluence densities.

[4] = Cytotoxicity in primary human hepatocytes, 5 days; details: human, primary human hepatocytes
Experimental: (§21) Primary human hepatocytes were from Bioreclamation IVT (Westbury, NY) or Life Technologies (Carlsbad, CA).
as §4

[5] = Bone marrow erythroid progenitor colony assay, 14 days; type: cell-based, human; details: human, human bone marrow erythroid progenitors, read-out: Mean CC50 ± SD in Bone marrow cells Erythroid
[6] = Cytotoxicity in HepG2 (galactose) cells, 5-day treatment; details: human, HepG2 cells (galactose)
Experimental: as §4
Cell Culture and Cytotoxicity Studies
as §5, §6, §7, §8, §9, §10, §11, §12, §13, §14, §15, §16, §17, §18, §19, §20

[7] = Cytotoxicity in quiescent PBMCs, 5 days; details: human, quiescent PBMCs
Experimental: (§22) Human peripheral blood mononuclear cells (PBMCs) were isolated from human buffy coats obtained from healthy volunteers (Stanford Blood Bank, Palo Alto, CA) using standard Ficoll separation and stimulated as described elsewhere ([13]) and were tested at both quiescent and stimulated stages. Quiescent PBMCs were stimulated with 10 units per ml of recombinant human interleukin 2 (hIL-2) and 1 μg per ml phytohemagglutinin P (PHA-P) for 48 h prior to drug treatment.
as §4
(§23) Human peripheral blood mononuclear cells (PBMCs) were isolated from human buffy coats
(§24) obtained from normal healthy volunteers (Stanford Medical School Blood Center, Palo Alto,
(§25) CA). Total PBMCs were isolated from buffy coats using standard Ficoll separation and sterile
(§26) cellular isolation techniques performed in a bio-safety cabinet (1). Except where noted, the
(§27) procedure was carried out at room temperature. The final PBMCs pellet was resuspended in
(§28) Logan, UT), penicillin 100 units/mL and streptomycin 100 µg/mL (Gibco). For quiescent
(§29) PBMCs cultures, total cells were seeded in 96-well plates at a density of 1 x 10^6 cells per well, followed by immediate drug treatment. Stimulated PBMCs cultures were set up by seeding the freshly isolated PBMCs in T-175cm2 tissue culture flasks in 100 mL of RPMI containing the same components as the ones used for the quiescent PBMCs but with the addition of 10 units per mL of recombinant human interleukin-2 (hIL-2, Roche, Indianapolis, IN), and 1 µg per mL phytohemagglutinin-P (PHA-P, Sigma-Aldrich, St. Louis, MO) at density of 2  10^6 cells per mL for 48 hours at 37C in a 5% CO2 incubator with 90% humidity, prior to drug treatment.

[8] = Bone marrow myeloid progenitor colony assay, 14 days; type: cell-based, human; details: human, human bone marrow myeloid progenitors, read-out: Mean CC50 ± SD in Bone marrow cells Myeloid
[9] = Cytotoxicity in MRC5 fibroblasts, 5-day treatment; details: human, MRC5 fibroblasts
[10] = system: mitochondrial spare respiratory capacity; test: Oxygen consumption rate / spare respiratory capacity in PC-3 cells; details: human, pH 7.4
[11] = system: mitochondrial spare respiratory capacity in PC-3 cells; test: as above; details: PC-3 cells, 3-day treatments
[12] = system: mitochondrial DNA-encoded cytochrome c oxidase (COX-1); test: Mitochondrial protein synthesis assay (COX-1, MitoBiogenesis in-cell ELISA) in PC-3 cells; type: cell-based, human; details: PC-3 cells
Experimental: (§3) PC-3 cells were treated with the compounds for 5 days and analyzed with the MitoTox MitoBiogenesis in-cell enzyme-linked immunosorbent assay (ELISA) kit (MitoSciences/Abcam, Eugene, Oregon) as described previously ([13]). The assay uses quantitative immunocytochemistry to measure the protein levels of nuclear DNA-encoded succinate dehydrogenase (SDH-A; complex II [succinate dehydrogenase]) and mitochondrial DNA-encoded cytochrome c oxidase (COX-1; complex IV [cytochrome c oxidase]) in cultured cells.

[13] = system: mitochondrial DNA-encoded cytochrome c oxidase (COX-1; complex IV) protein level; test: as above; type: cell-based, human; details: human; PC-3 cells, COX-1, 5 days; read-out: Mean CC50 ± SD causing Mitochondrial toxicity: Protein synthesis
Experimental: as §3

[14] = system: nuclear DNA-encoded succinate dehydrogenase (SDH-A; complex II) protein level; test: Nuclear protein synthesis (SDH-A, MitoBiogenesis in-cell ELISA) in PC-3 cells; type: cell-based, human; details: human, read-out: Mean CC50 ± SD causing General cellular toxicity: Protein synthesis
Experimental: as §3

[15] = Cytotoxicity / ATP level in PC-3 cells, 5-day treatment; details: human, PC-3 cells
Experimental: as §4
Cell Culture and Cytotoxicity Studies
as §5, §6, §7, §8, §9, §10, §11, §12, §13, §14, §15, §16, §17, §18, §19, §20

[16] = Cytotoxicity in MT-4 T-cells, 5-day treatment; details: human, MT-4 cells
Experimental: as §21, §4

[17] = Cytotoxicity in stimulated PBMCs, 5 days; details: human, stimulated PBMCs
Experimental: as §22, §4, §23, §24, §25, §26, §27, §28, §29

recombinant human PolRMT = molecular target: T6, recombinant human PolRMT (Homo sapiens, UniProt O00411); test: Single-nucleotide incorporation by PolRMT; type: biochemical; details: triphosphate form, fixed saturating concentration 500 μM, rate relative to corresponding natural rNTP
T6 construct: purchased Enzymax (Lexington, KY)
Description: as §2, §1
Supplementary Table S1: RNA primer and templates used in mitochondrial RNA
polymerase single nucleotide incorporation assay.
Oligonucleotides Sequencesa
Primer (R12) 5’-[…]-3’
Templates (D18) 3’-[…]-5’
a The bold letter in the template sequences denotes the bases that pair with the incoming NTP. […]

T3 sequence (O54889 whole entry): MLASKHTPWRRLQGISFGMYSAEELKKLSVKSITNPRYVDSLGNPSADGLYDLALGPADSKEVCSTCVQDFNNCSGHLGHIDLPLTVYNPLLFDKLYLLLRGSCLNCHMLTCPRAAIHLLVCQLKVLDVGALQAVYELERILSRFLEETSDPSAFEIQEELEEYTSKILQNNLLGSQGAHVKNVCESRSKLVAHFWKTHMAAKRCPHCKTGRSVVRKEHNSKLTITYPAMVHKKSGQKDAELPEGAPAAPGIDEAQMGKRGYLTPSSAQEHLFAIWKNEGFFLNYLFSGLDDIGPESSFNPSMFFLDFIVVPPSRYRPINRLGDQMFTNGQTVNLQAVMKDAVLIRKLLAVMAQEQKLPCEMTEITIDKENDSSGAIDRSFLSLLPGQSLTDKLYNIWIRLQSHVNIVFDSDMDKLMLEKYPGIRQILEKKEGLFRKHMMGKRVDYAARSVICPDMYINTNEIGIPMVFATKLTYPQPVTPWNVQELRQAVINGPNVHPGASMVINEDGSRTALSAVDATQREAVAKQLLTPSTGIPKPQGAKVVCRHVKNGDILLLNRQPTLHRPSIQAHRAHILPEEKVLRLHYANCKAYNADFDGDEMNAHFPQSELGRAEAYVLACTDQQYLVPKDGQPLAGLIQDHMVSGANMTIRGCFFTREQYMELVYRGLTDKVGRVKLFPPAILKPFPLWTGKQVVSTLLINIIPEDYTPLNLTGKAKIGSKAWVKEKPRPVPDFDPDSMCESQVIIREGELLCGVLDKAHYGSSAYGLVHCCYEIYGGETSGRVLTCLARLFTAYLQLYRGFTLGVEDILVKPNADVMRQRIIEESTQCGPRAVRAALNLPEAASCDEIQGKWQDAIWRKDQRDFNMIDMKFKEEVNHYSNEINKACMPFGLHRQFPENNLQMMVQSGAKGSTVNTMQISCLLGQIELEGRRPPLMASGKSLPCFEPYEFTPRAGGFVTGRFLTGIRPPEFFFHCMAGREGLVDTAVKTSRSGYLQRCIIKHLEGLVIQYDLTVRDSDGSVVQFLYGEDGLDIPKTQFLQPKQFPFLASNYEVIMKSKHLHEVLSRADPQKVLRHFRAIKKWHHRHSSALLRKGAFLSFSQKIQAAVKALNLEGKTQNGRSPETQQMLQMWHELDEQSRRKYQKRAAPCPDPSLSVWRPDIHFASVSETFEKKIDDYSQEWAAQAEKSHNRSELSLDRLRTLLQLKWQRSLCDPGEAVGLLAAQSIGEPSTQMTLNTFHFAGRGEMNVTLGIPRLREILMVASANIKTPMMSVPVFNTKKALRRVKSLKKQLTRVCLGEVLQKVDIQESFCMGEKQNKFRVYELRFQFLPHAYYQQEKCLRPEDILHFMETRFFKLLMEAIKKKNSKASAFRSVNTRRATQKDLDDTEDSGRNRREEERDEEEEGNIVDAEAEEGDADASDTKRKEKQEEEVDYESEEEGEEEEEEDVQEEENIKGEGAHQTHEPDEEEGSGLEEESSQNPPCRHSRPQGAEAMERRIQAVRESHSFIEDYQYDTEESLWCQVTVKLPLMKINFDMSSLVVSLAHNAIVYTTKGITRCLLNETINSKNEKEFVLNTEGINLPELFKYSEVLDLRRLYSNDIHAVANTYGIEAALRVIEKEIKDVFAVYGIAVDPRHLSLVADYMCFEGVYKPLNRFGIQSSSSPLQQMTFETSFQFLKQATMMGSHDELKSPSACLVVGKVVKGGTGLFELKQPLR
T6 sequence (O00411 42-1230): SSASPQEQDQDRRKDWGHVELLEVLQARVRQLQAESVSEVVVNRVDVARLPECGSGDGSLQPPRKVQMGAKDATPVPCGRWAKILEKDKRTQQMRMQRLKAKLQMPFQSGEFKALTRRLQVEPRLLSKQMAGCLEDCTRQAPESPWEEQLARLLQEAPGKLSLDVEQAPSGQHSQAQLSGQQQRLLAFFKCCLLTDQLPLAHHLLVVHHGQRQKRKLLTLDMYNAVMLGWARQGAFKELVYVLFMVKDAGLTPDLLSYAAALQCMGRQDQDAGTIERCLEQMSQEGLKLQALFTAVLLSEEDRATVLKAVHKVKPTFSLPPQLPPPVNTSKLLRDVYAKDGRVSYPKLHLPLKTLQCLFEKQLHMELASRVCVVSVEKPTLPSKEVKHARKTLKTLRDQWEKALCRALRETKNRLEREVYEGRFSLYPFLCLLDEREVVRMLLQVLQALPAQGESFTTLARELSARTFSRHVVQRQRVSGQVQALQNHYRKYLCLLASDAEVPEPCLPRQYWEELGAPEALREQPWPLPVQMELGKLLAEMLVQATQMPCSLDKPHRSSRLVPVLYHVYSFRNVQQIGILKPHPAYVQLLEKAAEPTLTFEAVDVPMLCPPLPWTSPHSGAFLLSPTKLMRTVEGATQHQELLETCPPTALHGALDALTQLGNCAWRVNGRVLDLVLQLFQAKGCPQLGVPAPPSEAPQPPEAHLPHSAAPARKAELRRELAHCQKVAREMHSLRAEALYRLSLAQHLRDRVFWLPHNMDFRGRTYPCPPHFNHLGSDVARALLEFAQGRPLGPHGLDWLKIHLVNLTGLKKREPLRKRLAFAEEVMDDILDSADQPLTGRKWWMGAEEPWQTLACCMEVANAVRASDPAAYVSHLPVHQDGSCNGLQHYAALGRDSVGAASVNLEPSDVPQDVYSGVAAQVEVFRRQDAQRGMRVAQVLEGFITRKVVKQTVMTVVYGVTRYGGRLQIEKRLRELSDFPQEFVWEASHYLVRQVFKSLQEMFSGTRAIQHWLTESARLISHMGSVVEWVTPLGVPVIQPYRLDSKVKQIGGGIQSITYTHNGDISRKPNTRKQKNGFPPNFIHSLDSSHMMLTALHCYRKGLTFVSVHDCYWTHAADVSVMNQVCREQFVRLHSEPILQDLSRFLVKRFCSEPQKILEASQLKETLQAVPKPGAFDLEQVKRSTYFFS

C[C@@]1(O)[C@H](O)[C@@H](COP(=O)(O)OP(=O)(O)OP(=O)(O)O)O[C@H]1n1cnc2c(N)ncnc21 [2′CMeATP]
IC50 (RNA PolIII): > 500 µM | IC50 (RNA PolII): > 500 µM | IC50 (RNA PolI): 190 ± 40 µM

C[C@@]1(O)[C@H](O)[C@@H](COP(=O)(O)OP(=O)(O)OP(=O)(O)O)O[C@H]1n1ccc(N)nc1=O [2′CMeCTP]
IC50 (RNA PolIII): > 500 µM | IC50 (RNA PolII): > 500 µM | IC50 (RNA PolI): 260 ± 40 µM

Cc1cn([C@H]2CC[C@@H](COP(=O)(O)OP(=O)(O)OP(=O)(O)O)O2)c(=O)[nH]c1=O [3′dTTP]
IC50 [1]: 1.9 ± 0.8 µM | IC50 [2]: 1.2 ± 0.6 µM

O=C(N[C@H](CO)[C@H](O)c1ccc([N+](=O)[O-])cc1)C(Cl)Cl [Chloramphenicol]
CC50 at 5 days [3]: > 89 µM | CC50 at 5 days [4]: > 100 µM | CC50 at 14 days [5]: 82 ± 29 µM | CC50 at 5 days [6]: > 89 µM | CC50 at 5 days [7]: > 100 µM | CC50 at 14 days [8]: > 100 µM | CC50 at 5 days [9]: > 89 µM | CC50 at 3 days [10]: 4.5 ± 1.5 µM | selectivity of effect on spare respiratory capacity versus DNA and ATP levels [11]: specifically inhibited mitochondrial spare respiratory capacity | selectivity of effect on COX-1 versus SDH-A and ATP levels ([12]; 5-day treatments): specifically inhibited COX-1 synthesis | CC50 at 5 days [13]: 2.6 ± 0.6 µM | CC50 at 5 days [14]: > 50 µM | CC50 at 5 days [15]: 16 ± 3 µM | CC50 at 5 days [16]: > 89 µM | CC50 at 5 days [17]: > 100 µM

NC(=O)c1ncn([C@@H]2O[C@H](CO)[C@@H](O)[C@H]2O)n1 [RBV, ribavirin]
effect on mitochondrial or nuclear protein synthesis or ATP level ([12]; 5-day treatment, 10 μM): no appreciable effect

CC(C)C(=O)OC[C@H]1O[C@@H](n2ccc(N)nc2=O)[C@](C)(F)[C@@H]1OC(=O)C(C)C [mericitabine]
Substrate incorporation (% of NTP [mean ± SD]) of PolRMT (recombinant human PolRMT): < 1 % of NTP
